The source of these data is PMC10974579, “A Monocarbonyl Curcuminoid Derivative Inhibits the Activity of Human Glutathione Transferase A4-4 and Chemosensitizes Glioblastoma Cells to Temozolomide” (Pharmaceuticals, 2024).

In one series the target is T1, hGSTA4-4 (Homo sapiens, UniProt O15217).
T1 sequence (O15217 1-222): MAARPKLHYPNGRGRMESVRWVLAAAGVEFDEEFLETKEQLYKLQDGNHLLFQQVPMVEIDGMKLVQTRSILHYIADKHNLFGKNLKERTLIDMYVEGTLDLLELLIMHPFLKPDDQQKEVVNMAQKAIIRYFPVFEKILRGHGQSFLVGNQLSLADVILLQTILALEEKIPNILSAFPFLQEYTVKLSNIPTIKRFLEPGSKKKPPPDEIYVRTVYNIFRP
Briefly: hGSTA4-4 enzyme inhibition assay (CDNB-GSH conjugation, 340 nm). The note with it: for Enzyme Inhibition (%): hGSTA4-4, compound at 100 μM, mean of three experiments, 100 µM; for inhibition at 100 µM: read-out: Enzyme Inhibition (%), hGSTA4-4, compound at 100 μM, mean of three experiments.

Series [1] can be described thus: In vitro cytotoxicity, MTT assay, U-87 MG. Type of series: cell-based, human. The note with it: human, U-87 MG cells, pH 7.4, U-87 MG cells. The procedure: (§1) U-251 and U-87 MG cells were grown in Dulbecco’s modified Eagle’s growth medium (pH 7.4) supplemented with 10% FBS, 100 U/mL penicillin, 2 mM glutamine, and 100 μg/mL streptomycin. Cell cultures were maintained in flasks and grown at 37 °C in a humidified atmosphere of 5% CO2. Subconfluent cells were detached using 0.05% (w/v) trypsin−0.25% (w/v) ethylenediaminetetraacetic acid solution at a subcultivation ratio of 1:2 to 1:5. […] Cells were seeded in 96-well plates (8 × 10^3 cells/well in 100 μL culture medium) and grown overnight at 37 °C in a 5% CO2 incubator. Exponentially growing cells were incubated for 48 h with various concentrations ranging between 10^−3 and 10^−8 M of each compound. The final DMSO concentration never exceeded 0.2%. The medium was then removed and replaced with 100 μL MTT solution (1 mg/mL). After 4 h incubation, the solution was aspirated, formazan crystals were solubilized in 100 μL DMSO, and the absorbance was recorded at 540 nm (Tecan well plate reader). The same procedure was followed for the TMZ sensitization experiments. […] Data were analyzed using the GraphPad Prism 5.0 software.
(In general: Formazan colour is commonly taken as a measure of viable cells.)

Series [2] has as its system U-87 MG cells. Briefly: In vitro cytotoxicity, MTT assay, U-87 MG. It counts as cell-based, human. The note with it: 48 h. Here is the method:
as §1

The test system of series [3] is U-251 MG cells. The series is described as follows: TMZ sensitization experiment, MTT assay, U-251 MG. It counts as cell-based, human. The procedure:
as §1, with “Cell” for “U-251 and U-87 MG cells were grown in Dulbecco’s modified Eagle’s growth medium (pH 7.4) supplemented with 10% FBS, 100 U/mL penicillin, 2 mM glutamine, and 100 μg/mL streptomycin. Cell”, “CO2.” for “CO2. Subconfluent cells were detached using 0.05% (w/v) trypsin−0.25% (w/v) ethylenediaminetetraacetic acid solution at a subcultivation ratio of 1:2 to 1:5.”

Series [4] concerns U-251 MG cells. Briefly: In vitro cytotoxicity, MTT assay, U-251 MG. It counts as cell-based, human. The note with it: 48 h. The procedure: as §1
Series [5] is described as follows: In vitro cytotoxicity, MTT assay, U-251 MG. Type of series: cell-based, human. The note with it: human, U-251 MG cells, pH 7.4, U-251 MG cells. Here is the method: as §1
For a further series, the target named is hGSTP1-1. Set-up: method as in PMID 36670925. The note with it: cited from earlier work; for Ki: read-out: inhibition constant Ki.
For series [6], the system named is U-87 MG cells. The note with it: cited from earlier work.

Read-outs that look alike come from different tables or passages of the source.

Method for hGSTA4-4: hGSTA4-4 activity was determined by monitoring (at 25 °C) the formation of the conjugate between CDNB and GSH at 340 nm (ε = 9600 L·mol^−1·cm^−1) for 120 s, as previously described [58]. One unit of enzyme activity is defined as the amount of enzyme that produces 1.0 μmol of product per minute under the assay conditions. The tested natural products and monocarbonyl curcumin derivatives were dissolved in DMSO (100 μΜ) and added to the assay mixture (the volume of DMSO was maintained at a 2% v/v final concentration). Initial velocities were determined in triplicates and were corrected for spontaneous reaction rates, when necessary. […] The IC50 values were determined from a graph of the remaining enzyme activity (%) against inhibitor concentration. The computer program GraphPad Prism version 8 (GraphPad Prism Software, Inc., Boston, MA, USA) was used for producing kinetic graphs and determining apparent kinetic parameters/constants and IC50 values.

Regarding `COc1cc2c(c(OC)c1OC)-c1ccc(OC)c(=O)cc1[C@@H](NC(C)=O)CC2` [Colchicine], on hGSTA4-4, the “Enzyme Inhibition (%)” value came out at 17.1% and the inhibition – broadly, how much of the control response was suppressed – at 100 µM was 17%.
As to `O=C(O)/C=C/c1ccc(O)cc1` [Coumaric Acid], the inhibition at 100 µM on hGSTA4-4 worked out at 27.3%.
Same read-out and setting: the same measure for `COc1cc(/C=C/C(=O)CC(=O)/C=C/c2ccc(O)c(OC)c2)ccc1O` [Curcumin]: 80.9%; for `COc1ccc(/C=C2\CCC/C(=C\c3ccc(OC)cc3)C2=O)cc1` [DM46]: 64.9%; for `COc1ccc(/C=C2\CCC/C(=C\c3ccc(OC)c(OC)c3)C2=O)cc1OC` [DM57]: 55.7%.
Same read-out and setting: the same measure for `O=C1/C(=C/c2ccc(F)cc2)CCC/C1=C\c1ccc(F)cc1` [DM62]: 74.9%; for `COc1ccc(/C=C/C(=O)/C=C/c2ccc(OC)c(OC)c2)cc1OC` [DM95]: 54.8%.
As for `O=C(/C=C/c1ccc(O)cc1)/C=C/c1ccc(O)cc1` [DM96], at hGSTA4-4, the “Enzyme Inhibition (%)” value amounted to 81.8% and the inhibition at 100 µM is more than 90%.
Take `COc1cc(/C=C2\CCC/C(=C\c3ccc(O)c(OC)c3)C2=O)ccc1O` [DM100]: at hGSTA4-4, the midpoint of inhibition, the IC50, lay at 16.9 ± 0.4 µM; the “Enzyme Inhibition (%)” value came out at 95.1%; the inhibition at 100 µM was more than 90%.
`COc1cc(/C=C/C(=O)/C=C/c2ccc(O)c(OC)c2)ccc1O` [DM101]: on hGSTA4-4, the IC50 (as a rule, the concentration at which inhibition is half-maximal) came out at 12.7 ± 1.1 µM; the “Enzyme Inhibition (%)” value turned out to be 94.1%; the inhibition at 100 µM was more than 90%.
For `O=C(/C=C/c1ccc(F)cc1)/C=C/c1ccc(F)cc1` [DM109], on hGSTA4-4, the inhibition at 100 µM is 73.9%.
Turning to `O=C(/C=C/c1ccc(O)c(O)c1)/C=C/c1ccc(O)c(O)c1` [DM148], the IC50 at 48 h in series [1] is 91.1 µM; in series [5] it was 89.2 µM. Besides, the IC50 with U-87 MG cells [2] stood at 91.1 ± 5.64 µM; in the series with U-251 MG cells [4], 89.2 ± 3.41 µM. Also, the cell survival in the series on U-251 MG cells [3] (48 h, compound alone at 10 μM) was more than 85%. Further, in the series on U-251 MG cells [3] (compound 10 μM + TMZ 150 μM, added together or 3 or 6 h pre-incubation, 48 h), the “change of cell survival in combination with TMZ” value was “did not result in any dramatic changes”. The inhibition at 100 µM on hGSTA4-4 stood at 4.6%.
In the case of `O=C1/C(=C/c2ccc(O)c(O)c2)CCC/C1=C\c1ccc(O)c(O)c1` [DM151], the IC50 at 48 h in series [1] came out at 18.9 µM; in series [5], 25.5 µM. The IC50 was 18.9 ± 5.81 µM in the series with U-87 MG cells [2] and 25.6 ± 4.83 µM in the series on U-251 MG cells [4]. In addition, the “cell survival in combination with TMZ” value in the series with U-251 MG cells [3] (3 h pretreatment with compound 10 μM, then TMZ 150 μM 48 h) is reported as 45%; with U-251 MG cells [3] (6 h pretreatment with compound 10 μM, then TMZ 150 μM 48 h), “approximately 35%”; in the series on U-251 MG cells [3] (compound 10 μM + TMZ 150 μM added together, 48 h), 55%. In addition, in the series on U-251 MG cells [3] (48 h, compound alone at 10 μM), the cell survival is more than 85%. In addition, the Ki – broadly, a measure of affinity in units of concentration, obtained from inhibition or displacement – on hGSTP1-1 (hGSTP1-1, CDNB substrate) was 9.55 µM; on hGSTP1-1 (hGSTP1-1, variable substrate GSH), 5.79 µM. In addition, the type of inhibition entry in the series on hGSTP1-1 (hGSTP1-1, both GSH and CDNB substrates) is “purely non-competitive”.
Turning to `O=c1oc2c(O)c(O)cc3c(=O)oc4c(O)c(O)cc1c4c23` [Ellagic acid, Ellagic Acid], the IC50 in the series on U-87 MG cells [6] (48 h treatment, read-out: IC50 (cytotoxicity)) is 91.2 µM. In addition, at hGSTA4-4, 0.44 ± 0.01 µM corresponded to half-maximal inhibition (IC50), the “Enzyme Inhibition (%)” value is listed as 95.1% and the inhibition at 100 µM worked out at 95%.
Take `O=C(O[C@@H]1Cc2c(O)cc(O)cc2O[C@@H]1c1cc(O)c(O)c(O)c1)c1cc(O)c(O)c(O)c1` [Epigallocatechin gallate]: the inhibition at 100 µM on hGSTA4-4 turned out to be 86.4%.
Take `O=C(O)c1cc(O)c(O)c(O)c1` [Gallic acid]: on hGSTA4-4, the inhibition at 100 µM was determined as 20.8%.
Consider `O=C1C[C@@H](c2ccc(O)cc2)Oc2cc(O)cc(O)c21` [Naringenin], for which the inhibition at 100 µM on hGSTA4-4 stood at 28.5%.
On the same count and under the same terms, the same measure for `OC[C@H]1O[C@@H](Oc2cc(O)cc(/C=C/c3ccc(O)cc3)c2)[C@H](O)[C@@H](O)[C@@H]1O` [Polydatin]: 32.3%; for `O=c1c(O)c(-c2ccc(O)c(O)c2)oc2cc(O)cc(O)c12` [Quercetin]: 84.7%.
Regarding `Oc1ccc(/C=C/c2cc(O)cc(O)c2)cc1` [Resveratrol], at hGSTA4-4, the “Enzyme Inhibition (%)” value is on record as 8.87% and the inhibition at 100 µM was determined as 8.9%.
`CC1=C(C=O)C(C)(C)CC=C1` [Safranal]: the inhibition at 100 µM at hGSTA4-4 came out at 21.8%.
For `Cn1nnc2c(C(N)=O)ncn2c1=O` [TMZ, temozolomide], in the series with U-251 MG cells [3] (48 h, TMZ alone at 150 μM), the cell survival was more than 85%. Also, the IC50 in the series on U-87 MG cells [6] (48 h, interquartile range, read-out: IQR of IC50) was 92 to 590 µM; with U-87 MG cells [6] (48 h, read-out: median IC50), 223 µM.
On to `O=C1c2c(O)cc(O)cc2O[C@H](c2ccc(O)c(O)c2)[C@H]1O` [Taxifolin hydrate], for which, at hGSTA4-4, the “Enzyme Inhibition (%)” value came out at 40.37% and the inhibition at 100 µM amounted to 40%.
